Measured values from patent US8841325B2, “Immunomodulatory compounds for the restoration of vitamin D sensitivity in vitamin D resistant tumor cells” (Celgene Corporation, priority 2009, dated 2014).

Legend:
Format in all cases: cell-based
HBL-100 cells = assay: Cell viability by neutral red assay, HBL-100; details: Homo sapiens, HBL-100, 144 h; ABT-263, 6 days, FIG. 16; read-out: IC50 (cell viability / killing)
Procedure: (§1) After 6 days treatment, cells were seeded into 24 well plates at a density of 1×10^4 cells/wells. After 24 h, cells were treated with reagents or vehicle for up to six days. At the end of the incubation period, medium was removed and cells were incubated with neutral red solution (40 μg/ml in phenol red and serum free DMEM) for 2 h at 37° C. After removal of the neutral red solution, wells were rinsed once with 1 ml 4% formal saline containing 0.5% CaCl2. Plates were inverted on paper towel to drain and 200 μl of elution fluid (1% acetic acid in 50% ethanol) was added. Following incubation at room temperature for 30 min with gentle shaking, absorbance at 550 nm was determined
In order to validate the previous results obtained in MDA-MB-231 cells, two other vitamin D resistant cell lines MCF-7/VD^R and HBL-100 cells, were investigated. First the effect of lenalidomide on these cells lines were investigated. To this end, cells were treated for up to 6 days with different concentrations of lenalidomide (0 μM up to 10 μM). Cell viability was measured by neutal red dye assay (FIG. 13).
(§2) More particularly, FIG. 13 illustrates the effects of lenalidomide treatment on MCF-7/VDR and HBL-100 viability. MCF-7/VDR and HBL-100 cells were treated for up to 6 days with different concentrations of lenalidomide (0 μM up to 10 μM). Cell viability was measured by neutral red dye assay. Results are mean of three independent experiments (each made in quadruplicate).
Cell viability was measured by neutral red dye assay (FIG. 14).
as §2, with “14” for “13”, “lenalidomide/1, 25-D3 co-treatment” for “lenalidomide treatment”, “(0.01” for “(0”, “1 μM) alone or in combination with different concentrations of 1, 25-D3 (0 for up to 1000 nM).” for “10 μM).”
(§3) To accomplish this, cells were treated for up to 6 days with different concentrations of a BCL-2 inhibitor, ABT-263 ([…]). Non-treated cells were used as a control. After 6 days of treatment, cell viability was measured by neutral red assay (FIG. 16). In the three cell lines, BCL-2 inhibition leads to cell death. The IC50 is almost equivalent in all cell lines (1 μM+/−0.2 μM).
(§4) More particularly, FIG. 16 illustrates the effects of BCL-2 inhibition on MCF-7VD^R and HBL-100 viability. MDA-MB-231, MCF-7/VD^R and HBL-100 cells were treated for up to 6 days with different concentrations of ABT-263 (0.2 up to 20 μM). Non-treated cells were used as a control. After 6 days of treatment, cell viability was measured by neutral red assay. Results are mean of three independent experiments (each made in quadruplicate).

MCF-7/VD^R cells = assay: Cell viability by neutral red assay, MCF-7/VD^R; details: Homo sapiens, MCF7, 144 h; ABT-263, 6 days, FIG. 16; read-out: IC50 (cell viability / killing)
Description: (§5) Non-treated cells were used as a control.
as §5

MDA-MB-231 cells [1] = assay: Cell viability by neutral red assay, MDA-MB-231; details: for effect on cell viability: single agent, up to 6 days, Thalidomide 0.01-100 μM, CC-4047 and lenalidomide 0.001-10 μM, FIG. 6A
Procedure: (§6) Cells were seeded in 24 wells plates at a density of 10^4 cells per well and allowed to adhere for 24 hours. […] The drug was renewed every 2 days. Cell viability was then determined by neutral red assay, measuring absorbance at 550 nm.
as §1, §3, §4

MCF-7 cells [2] = assay: Cell viability by neutral red assay, MCF-7; details: single agent, up to 6 days, Thalidomide 0.01-100 μM, CC-4047 and lenalidomide 0.001-10 μM, FIG. 6A
Procedure: as §6, §1

MCF-7 cells [3] = assay: Cell growth by Sulphorhodamine B (SRB) assay, MCF-7; details: single agent, up to 6 days, Thalidomide 0.01-100 μM, CC-4047 and lenalidomide 0.001-10 μM, FIG. 6B
Procedure: (§7) Cells were seeded in 24 wells plates at a density of 10^4 cells per well and allowed to adhere for 24 hours. […] Each treatment was carried out for up to 7 days, but renewed every 2 days. Cell growth was then determined by Sulphorhodamine B (SRB) assay, measuring absorbance at 550 nm.
(§8) After 6 days treatment, cells were seeded in 24 well plates at a density of 1×10^4 cells/well. After 24 h cells were treated with reagents or vehicle for up to six days. Cells were treated for up to 6 days with log doses of Thalidomide (0.1 μM up to 100 μM), pomalidomide and lenalidomide (0 μM up to 10 μM). At the end of each experiment, cells were fixed to the bottom of the well by addition of ice-cold 50% w/v trichloroacetic acid (TCA) to give a final concentration of 10% TCA. Plates were incubated at 4° C. for 30 minutes and then washed with distilled water. Plates were allowed to air-dry at room temperature before staining with 0.4% w/v SRB in 1% v/v acetic acid and incubated for 15 minutes on a shaker. The plates were then extensively washed with 1% acetic acid to remove unbound dye and were again allowed to air-dry at room temperature. Incorporated dye was solubilised with 200 μl […] Tris base. 100 μl aliquots were transferred to a 96 well plate and absorbance at 550 nm was determined

MDA-MB-231 cells [4] = assay: Cell growth by Sulphorhodamine B (SRB) assay, MDA-MB-231
Procedure: (§9) Cells were seeded in 24 wells plates at a density of 10^4 cells per well and allowed to adhere for 24 hours. To determine the combination effects of the drugs, cells were treated with 100 nM 1,25 D3 and 10 nM 1-oxo-2-(2,6-dioxopiperidin-3-yl)-4-aminoisoindoline or 1,3-dioxo-2-(2,6-dioxopiperidin-3-3-yl)-4-aminoisoindoline. Each treatment was carried out for up to 7 days, but renewed every 2 days. Cell growth was then determined by Sulphorhodamine B (SRB) assay, measuring absorbance at 550 nm.
as §9, with “per wekk” for “per well”, “and varying doses of” for “and 10 nM”, “or 1,3-dioxo-2-(2,6-dioxopiperidin-3-yl)-4-aminoisoindoline.” for “or 1,3-dioxo-2-(2,6-dioxopiperidin-3-3-yl)-4-aminoisoindoline.”
as §8

MCF-12A cells [5] = assay: Cell viability by neutral red assay, MCF-12A; details: single agent, up to 6 days, Thalidomide 0.01-100 μM, CC-4047 and lenalidomide 0.001-10 μM, FIG. 6A
Procedure: as §6, §1

MCF-12A cells [6] = assay: Cell growth by Sulphorhodamine B (SRB) assay, MCF-12A; details: single agent, up to 6 days, Thalidomide 0.01-100 μM, CC-4047 and lenalidomide 0.001-10 μM, FIG. 6B
Procedure: as §7, §8

SMILES	IC50 (HBL-100 cells) [µM]	IC50 (MCF-7/VD^R cells) [µM]	IC50 (MDA-MB-231 cells [1]; Homo sapiens, MDA-MB-231, 144 h, ABT-263, 6 days, FIG. 16, read-out: IC50 (cell viability / killing)) [µM]	effect on cell viability (MCF-7 cells [2])	effect on cell growth (MCF-7 cells [3])	minimal concentration giving statistically significant inhibition of growth (MDA-MB-231 cells [4]; in the presence of 100 nM 1,25 D3, up to 7 days, FIG. 3) [µM]	effect on cell growth (MDA-MB-231 cells [4]; single agent, 0.001-10 μM, up to 6 days)	effect on cell viability (MCF-12A cells [5])	effect on cell growth (MCF-12A cells [6])	effect on cell viability (MDA-MB-231 cells [1])	inhibition at 100 µM (MDA-MB-231 cells [4]; Homo sapiens, MDA-MB-231, 144 h, single agent, 100 μM Thalidomide (highest dose), up to 6 days) [%]
CC1(C)CCC(c2ccc(Cl)cc2)=C(CN2CCN(c3ccc(C(=O)NS(=O)(=O)c4ccc(N[C@H](CCN5CCOCC5)CSc5ccccc5)c(S(=O)(=O)C(F)(F)F)c4)cc3)CC2)C1 [ABT-263]	1	1	1								
Nc1cccc2c1C(=O)N(C1CCC(=O)NC1=O)C2=O (stereo not shown) [Pomalidomide, 1,3-dioxo-2-(2,6-dioxopiperidin-3-yl)-4-aminoisoindoline]				do not Affect	do not Affect	0.1	no effects	do not Affect	do not Affect	do not Affect	
O=C1CCC(N2C(=O)c3ccccc3C2=O)C(=O)N1 (stereo not shown) [Thalidomide]				do not Affect	do not Affect			do not Affect	do not Affect	do not Affect	20
